The values below come from patent US9765039B2, “Biaryl derivatives as bromodomain inhibitors” (Zenith Epigenetics Ltd., priority 2012, dated 2017).

As usually defined, the melting point is the temperature, or range, at which the solid turns liquid.

One data set deals with hIL-6 mRNA. Put plainly: Inhibition of hIL-6 mRNA transcription in LPS-stimulated U937 macrophages. It counts as cell-based, human. Also noted: key: Active: Compounds with an IC50 value less than 30 μM are deemed to be active. To be noted: U937 differentiated into macrophages, 1 h pretreatment, lipopolysaccharide 3 h. On the procedure:
In this example, hIL-6 mRNA in tissue culture cells was quantitated to measure the transcriptional inhibition of hIL-6 when treated with a compound of the present disclosure.
A human leukemic monocyte lymphoma cell line (U937) was plated (3.2×10^4 cells per well) in a 96-well plate in 100 μL RPMI-1640 containing 10% FBS and penicillin/streptomycin, and differentiated into macrophages for 3 days in 60 ng/mL PMA ([…]) at 37° C. in 5% CO2 prior to the addition of the compound of interest. The cells were pretreated for 1 h with the test compound prior to stimulation with […] lipopolysaccharide from Escherichia coli. The cells were incubated at 37° C. for 3 h before the cells were harvested. At time of harvest, the spent media was removed from the cells and the cells were rinsed in 200 μL PBS. Cell lysis solution (70 μL) was added the cells in each well and incubated for 5-10 min at room temperature, to allow for complete cell lysis and detachment. mRNA was then prepared using the “mRNA Catcher PLUS plate” (Invitrogen), according to the protocol supplied. After the last wash, as much wash buffer as possible was aspirated without allowing the wells to dry. Elution buffer (E3, 70 μL) was then added to each well. mRNA was then eluted by incubating the mRNA Catcher PLUS plate with Elution Buffer for 5 min at 68° C. and then immediately placing the plate on ice.
The eluted mRNA isolated was then used in a one-step quantitative real-time PCR reaction, using components of the Ultra Sense Kit together with Applied Biosystems primer-probe mixes. Real-time PCR data was analyzed, normalizing the Ct values for hIL-6 to an internal control, prior to determining the fold induction of each unknown sample, relative to the control.

Another data set deals with c-myc. Put plainly: Inhibition of c-myc expression in cancer cell lines (mRNA, real-time PCR). Set-up: key: Active: Compounds with an IC50 value less than 30 μM were deemed to be active. To be noted: Human AML MV4-11 cells, 3 hours. It counts as cell-based. On the procedure: MV4-11 cells (2.5×10^4 cells) were plated in 96 well U-bottom plates with test compound or DMSO (0.1%), and incubated for 3 hours at 37° C. Cells were then harvested by centrifugation, lysed, and mRNA was isolated using the mRNA catcher plus kit (Invitrogen). Reverse transcription of the mRNA and duplex amplification of the c-myc and cyclophilin cDNAs was performed using the RNA Ultrasense kit (Invitrogen) and a ViiA7 real-time PCR machine (Applied Biosystems). IC50 values were determined from a dose response curve.
A general note: In qPCR the cycle at which signal appears reflects the starting amount.

The subject of another data set is Human AML MV-4-11 cells. Briefly: Inhibition of cell proliferation in cancer cell lines (CellTiter Aqueous One). Also noted: key: Active: Compounds with an IC50 value less than 30 μM were deemed to be active.; Not Active: Compounds with an IC50 value less than 30 μM were deemed to be active. The data set is classed as cell-based. The following applies: 72 hours. On the procedure:
MV4-11 cells: 96-well plates were seeded with 5×10^4 cells per well of exponentially growing human AML MV-4-11 (CRL-9591) cells and immediately treated with two-fold dilutions of test compounds, ranging from 30 μM to 0.2 μM. Triplicate wells were used for each concentration, as well as a media only and three DMSO control wells. The cells and compounds were incubated at 37° C., 5% CO2 for 72 hours before adding 20 μL of the CellTiter Aqueous One Solution (Promega) to each well and incubating at 37° C., 5% CO2 for an additional 3-4 hours. The absorbance was taken at 490 nm in a spectrophotometer and the percentage of proliferation relative to DMSO-treated cells was calculated after correction from the blank well. IC50 were calculated using the GraphPad Prism software.

The next data set concerns the target T1, Brd4 bromodomain 1 (Homo sapiens, UniProt O60885).
T1 construct: made in house; host or cells: E. coli BL21(DE3)
Put plainly: Inhibition of tetra-acetylated histone H4 binding to BET bromodomains (TR-FRET). Also noted: key: Active: Compounds with an IC50 value less than 30 μM were deemed to be active.; Not Active: Compounds with an IC50 value less than 30 μM were deemed to be active. The following applies: first bromodomain of Brd4, tetra-acetylated histone H4 peptide. On the procedure:
Proteins were cloned and overexpressed with a N-terminal 6×His tag, then purified by nickel affinity followed by size exclusion chromatography. Briefly, E. coli BL21(DE3) cells were transformed with a recombinant expression vector encoding N-terminally Nickel affinity tagged bromodomains from Brd2, Brd3, Brd4. Cell cultures were incubated at 37° C. with shaking to the appropriate density and induced overnight with IPTG. The supernatant of lysed cells was loaded onto Ni-IDA column for purification. Eluted protein was pooled, concentrated and further purified by size exclusion chromatography. Fractions representing monomeric protein were pooled, concentrated, aliquoted, and frozen at −80° C. for use in subsequent experiments.
Binding of tetra-acetylated histone H4 and BET bromodomains was confirmed by a Time Resolved Fluorescence Resonance Energy Transfer (TR-FRET) method. N-terminally His-tagged bromodomains (200 nM) and biotinylated tetra-acetylated histone H4 peptide (25-50 nM, Millipore) were incubated in the presence of Europium Cryptate-labeled streptavidin (Cisbio Cat. #610SAKLB) and XL665-labeled monoclonal anti-His antibody (Cisbio Cat. #61HISXLB) in a white 96 well microtiter plate (Greiner). For inhibition assays, serially diluted test compound was added to these reactions in a 0.2% final concentration of DMSO. Final buffer concentrations were 30 mM HEPES pH 7.4, 30 mM NaCl, 0.3 mM CHAPS, 20 mM phosphate pH 7.0, 320 mM KF, 0.08% BSA). After 2 hours incubation at room temperature, the fluorescence by FRET was measured at 665 and 620 nm by a SynergyH4 plate reader (Biotek). Illustrative results with the first bromodomain of Brd4 are shown below (Table 1). The binding inhibitory activity was shown by a decrease in 665 nm fluorescence relative to 620 nm. IC50 values were determined from a dose response curve.
(Time-resolved FRET reads energy transfer from a long-lived donor to a nearby acceptor.)

For the compound `COc1cc(OC)c2c(=O)[nH]c(-c3cc(-c4ccc([S+](C)[O-])cc4)cs3)nc2c1` (stereo not shown) [Example 48, 5,7-Dimethoxy-2-(4-(4-(methylsulfinyl)phenyl)thiophen-2-yl)quinazolin-4(3H)-one], the melting point was more than 300 °C. Besides, the “IL-6 activity (IC50 < 30 μM)” value with hIL-6 mRNA was “Active”. Moreover, the “c-myc activity (IC50 < 30 μM)” value with c-myc was “Not Active”. Further, in the data set with Human AML MV-4-11 cells, the “cell proliferation activity (IC50 < 30 μM)” value (“cell proliferation activity” for short) was “Not Active”. The “FRET activity (IC50 < 30 μM)” value at Brd4 bromodomain 1 is “Not Active”.
As to `CCS(=O)(=O)c1ccc(-c2nc(-c3nc4cc(OC)cc(OC)c4c(=O)[nH]3)ccc2OCCNC(C)C)cc1` [Example 35, 2-(6-(4-(Ethylsulfonyl)phenyl)-5-(2-(isopropylamino)ethoxy)pyridin-2-yl)-5,7-dimethoxyquinazolin-4(3H)-one], the melting point lay within 195 to 197 °C. Further, the “IL-6 activity (IC50 < 30 μM)” value in the data set on hIL-6 mRNA is on record as “Not Active”. In the data set on c-myc, the “c-myc activity (IC50 < 30 μM)” value is reported as “Active”. The “cell proliferation activity” value with Human AML MV-4-11 cells is “Active”. Further, the “FRET activity (IC50 < 30 μM)” value on Brd4 bromodomain 1 is “Active”.
Consider `COc1cc(OC)c2c(=O)[nH]c(-c3ccc(OCCN4CCOCC4)c(-c4ccc(S(C)(=O)=O)cc4)n3)nc2c1.Cl` [Example 31, 5,7-Dimethoxy-2-(6-(4-(methylsulfonyl)phenyl)-5-(2-morpholinoethoxy)pyridin-2-yl)quinazolin-4(3H)-one hydrochloride], for which the melting point fell in the range of 226 to 228 °C. Also, the “IL-6 activity (IC50 < 30 μM)” value in the data set on hIL-6 mRNA was “Active”. Further, the “c-myc activity (IC50 < 30 μM)” value in the data set on c-myc was “Active”. The “cell proliferation activity” value with Human AML MV-4-11 cells is recorded as “Not Active”. Besides, the “FRET activity (IC50 < 30 μM)” value at Brd4 bromodomain 1 is reported as “Active”.
Compound `CCS(=O)(=O)c1ccc(-c2nc(-c3nc4cc(OC)cc(OC)c4c(=O)[nH]3)ccc2OCCO)cc1` [Example 34, 2-(6-(4-(Ethylsulfonyl)phenyl)-5-(2-hydroxyethoxy)pyridin-2-yl)-5,7-dimethoxyquinazolin-4(3H)-one] returned a melting point of 282 to 284 °C. Besides, the “IL-6 activity (IC50 < 30 μM)” value with hIL-6 mRNA is on record as “Active”. The “c-myc activity (IC50 < 30 μM)” value in the data set on c-myc is reported as “Active”. Moreover, the “cell proliferation activity” value in the data set with Human AML MV-4-11 cells is listed as “Active”. At Brd4 bromodomain 1, the “FRET activity (IC50 < 30 μM)” value was “Active”.
Compound `COc1cc(OC)c2c(=O)[nH]c(-c3cccc(-c4ccc([S+](C)[O-])s4)c3)nc2c1` (stereo not shown) [Example 51, 5,7-Dimethoxy-2-(3-(5-(methylsulfinyl)thiophen-2-yl)phenyl)quinazolin-4(3H)-one] had a melting point of 289 to 290 °C. The “IL-6 activity (IC50 < 30 μM)” value with hIL-6 mRNA is on record as “Active”. Moreover, the “c-myc activity (IC50 < 30 μM)” value in the data set on c-myc is recorded as “Not Active”. In addition, the “cell proliferation activity” value in the data set on Human AML MV-4-11 cells is listed as “Not Active”. On Brd4 bromodomain 1, the “FRET activity (IC50 < 30 μM)” value was “Active”.
In the case of `COc1ccc2c(=O)[nH]c(-c3ccc(OCCO)c(-c4ccc([S+](C)[O-])cc4)n3)nc2c1` (stereo not shown) [Example 60, 2-(5-(2-Hydroxyethoxy)-6-(4-(methylsulfinyl)phenyl)pyridin-2-yl)-7-methoxyquinazolin-4(3H)-one], the melting point was 266 to 267 °C. Further, in the data set with hIL-6 mRNA, the “IL-6 activity (IC50 < 30 μM)” value is reported as “Not Active”. In addition, the “c-myc activity (IC50 < 30 μM)” value with c-myc is given as “Not Active”. For the same compound, the “cell proliferation activity” value in the data set on Human AML MV-4-11 cells is “Not Active”. Further, the “FRET activity (IC50 < 30 μM)” value at Brd4 bromodomain 1 is “Active”.
On to `COc1cc(OC)c2c(=O)[nH]c(-c3ccc(OCCNC(C)C)c(-c4ccccc4)n3)nc2c1` [Example 22, 2-(5-(2-(Isopropylamino)ethoxy)-6-phenylpyridin-2-yl)-5,7-dimethoxyquinazolin-4(3H)-one], for which the melting point is 179 to 180 °C. In addition, the “IL-6 activity (IC50 < 30 μM)” value in the data set with hIL-6 mRNA is recorded as “Active”. For the same compound, the “c-myc activity (IC50 < 30 μM)” value with c-myc is listed as “Active”. For the same compound, the “cell proliferation activity” value with Human AML MV-4-11 cells is listed as “Active”. At Brd4 bromodomain 1, the “FRET activity (IC50 < 30 μM)” value is given as “Active”.
For the compound `COc1cc(OC)c2c(=O)[nH]c(-c3ccc(OC)c(-c4ccc(C(=O)N(C)C)cc4Cl)n3)nc2c1` [Example 56, 3-Chloro-4-(6-(5,7-dimethoxy-4-oxo-3,4-dihydroquinazolin-2-yl)-3-methoxypyridin-2-yl)-N,N-dimethylbenzamide], the melting point was in the range of 271 to 272 °C. Further, the “IL-6 activity (IC50 < 30 μM)” value in the data set with hIL-6 mRNA is “Active”. For the same compound, the “c-myc activity (IC50 < 30 μM)” value with c-myc is “Not Active”. The “cell proliferation activity” value with Human AML MV-4-11 cells is recorded as “Not Active”. For the same compound, the “FRET activity (IC50 < 30 μM)” value at Brd4 bromodomain 1 is “Not Active”.
On to `COc1cc(OC)c2c(=O)[nH]c(-c3cc(-c4ccc([S+](C)[O-])cc4)c4[nH]ccc4c3)nc2c1` (stereo not shown) [Example 52, 5,7-Dimethoxy-2-(7-(4-(methylsulfinyl)phenyl)-1H-indol-5-yl)quinazolin-4(3H)-one], for which the melting point is 316 °C (dec.). In addition, the “IL-6 activity (IC50 < 30 μM)” value in the data set on hIL-6 mRNA is on record as “Active”. Further, in the data set on c-myc, the “c-myc activity (IC50 < 30 μM)” value is reported as “Not Active”. For the same compound, in the data set with Human AML MV-4-11 cells, the “cell proliferation activity” value is “Not Active”. Also, the “FRET activity (IC50 < 30 μM)” value at Brd4 bromodomain 1 was “Active”.
Consider `COc1cc(OC)c2c(=O)[nH]c(-c3ccc(OC)c(-c4ccc(S(C)(=O)=O)cc4)n3)nc2c1` [Example 58, 5,7-Dimethoxy-2-(5-methoxy-6-(4-(methylsulfonyl)phenyl)pyridin-2-yl)quinazolin-4(3H)-one], for which the melting point is 279 to 281 °C. In addition, in the data set with hIL-6 mRNA, the “IL-6 activity (IC50 < 30 μM)” value is “Active”. Moreover, in the data set on c-myc, the “c-myc activity (IC50 < 30 μM)” value is on record as “Not Active”. Also, the “cell proliferation activity” value with Human AML MV-4-11 cells is “Not Active”. For the same compound, the “FRET activity (IC50 < 30 μM)” value on Brd4 bromodomain 1 is reported as “Active”.
`COc1cc(OC)c2c(=O)[nH]c(-c3ccc(OCC[N+]4([O-])CCCC4)c(-c4ccc(S(C)(=O)=O)cc4)n3)nc2c1` [Example 63, 1-(2-((6-(5,7-Dimethoxy-4-oxo-3,4-dihydroquinazolin-2-yl)-2-(4-(methylsulfonyl)phenyl)pyridin-3-yl)oxy)ethyl)pyrrolidine 1-oxide] showed a melting point of 167 to 170 °C. In addition, the “IL-6 activity (IC50 < 30 μM)” value with hIL-6 mRNA is listed as “Active”. In the data set with c-myc, the “c-myc activity (IC50 < 30 μM)” value is listed as “Not Active”. The “cell proliferation activity” value with Human AML MV-4-11 cells is given as “Not Active”. Also, the “FRET activity (IC50 < 30 μM)” value on Brd4 bromodomain 1 was “Active”.
